Measured values reported in patent publication US11382889B2, “NRF2 activators for the prevention and/or treatment of axonal degeneration” (priority 2018, dated 2022).
Where a name gives a salt, the structure may show the parent alone.

Test: Tolerability of dietary DMF in mice (weight, food intake, adverse events)
Details: DMF 100 mg/kg/day in chow
Description: We used male mice of a pure C57BL/6J background. All methods employed in this study were in accordance with the Guide for the Care and Use of Laboratory Animals (Guide, 8th edition, 2011, NIH) and European (2010/63/UE) and Spanish (RD 53/2013) legislation. Experimental protocol had been approved by IDIBELL, IACUC (Institutional Animal Care and Use Committee) and regional authority (3546 DMAH, Generalitat de Catalunya, Spain). IDIBELL animal facility has been accredited by The Association for Assessment and Accreditation of Laboratory Animal Care (AAALAC, Unit 1155). Animals were housed at 22° C. on specific-pathogen free conditions, in a 12-hour light/dark cycle, and ad libitum access to food and water. Cages contained 3 to 5 animals.
DMF was mixed into AIN-76A chow from Dyets (Bethlehem, Pa., USA) to provide a dose of 100 mg/kg/day. Human equivalent dose would be 8 mg/kg/day ([…] in a typical 60 kg person). This is equivalent to the starting dose of BG-12/Tecfidera that is 120 mg twice a day for MS patients (EMA/204830/2013).
For the characterization of biochemical signs on adult X-ALD mice, 8-months-old animals were randomly assigned to one of the following dietary groups for 4 months.
Group I: wild-type (WT) mice received normal AIN-76A chow (n=12); group II: Abcd1^− mice received normal AIN-76A chow (n=12); group III: Abcd1^− mice received AIN-76A chow containing DMF (n=12). To evaluate the effect of DMF on the clinical signs of AMN-like pathology, 12-months-old animals were randomly assigned to one of the following dietary groups for 6 months. Group I: WT mice received normal AIN-76A chow (n=14); group II: Abcd1^−/Abcd2^−/− mice received normal AIN-76A chow (n=16); group III: Abcd1^−/Abcd2^−/− mice received AIN-76A chow containing DMF (n=14).

[1] = any treatment protocol (4 or 6 months)

For `COC(=O)/C=C/C(=O)OC` [DMF, dimethyl fumarate], which “adverse events or death during treatment” value (4 or 6 months) is on record?
The value was “none of the mice administered with DMF experienced any adverse events or death”.

What about the “effect on food intake” value [1] of the same compound?
The value was “no effect”.

What about the effect on weight [1] of the same compound?
The effect on weight was “no effect”.
